Where two headings read alike, the source gives them in different places.
How the values were obtained:
[1] = target: EGFR Del19/T790M/C797S (Homo sapiens, UniProt P00533, C797S/DEL746-750/T790M); experiment: Biochemical EGFR kinase inhibition assay (Lance Ultra TR-FRET), triple mutant del19/T790M/C797S
How it was run: (§1)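 Kinase activity is measured by TR-FRET phosphopeptide detection. Compounds span 0.003 μM to 10 μM; the 1 h reaction at room temperature is quenched with EDTA, then labelled antibody (2 nM) is incubated 60 min before reading.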

[2] = target: EGFR L858R/T790M/C797S (Homo sapiens, UniProt P00533, C797S/L858R/T790M); experiment: Biochemical EGFR kinase inhibition assay (Lance Ultra TR-FRET), triple mutant L858R/T790M/C797S
Chain of EGFR L858R/T790M/C797S (P00533 25-1210 T790M/C797S/L858R): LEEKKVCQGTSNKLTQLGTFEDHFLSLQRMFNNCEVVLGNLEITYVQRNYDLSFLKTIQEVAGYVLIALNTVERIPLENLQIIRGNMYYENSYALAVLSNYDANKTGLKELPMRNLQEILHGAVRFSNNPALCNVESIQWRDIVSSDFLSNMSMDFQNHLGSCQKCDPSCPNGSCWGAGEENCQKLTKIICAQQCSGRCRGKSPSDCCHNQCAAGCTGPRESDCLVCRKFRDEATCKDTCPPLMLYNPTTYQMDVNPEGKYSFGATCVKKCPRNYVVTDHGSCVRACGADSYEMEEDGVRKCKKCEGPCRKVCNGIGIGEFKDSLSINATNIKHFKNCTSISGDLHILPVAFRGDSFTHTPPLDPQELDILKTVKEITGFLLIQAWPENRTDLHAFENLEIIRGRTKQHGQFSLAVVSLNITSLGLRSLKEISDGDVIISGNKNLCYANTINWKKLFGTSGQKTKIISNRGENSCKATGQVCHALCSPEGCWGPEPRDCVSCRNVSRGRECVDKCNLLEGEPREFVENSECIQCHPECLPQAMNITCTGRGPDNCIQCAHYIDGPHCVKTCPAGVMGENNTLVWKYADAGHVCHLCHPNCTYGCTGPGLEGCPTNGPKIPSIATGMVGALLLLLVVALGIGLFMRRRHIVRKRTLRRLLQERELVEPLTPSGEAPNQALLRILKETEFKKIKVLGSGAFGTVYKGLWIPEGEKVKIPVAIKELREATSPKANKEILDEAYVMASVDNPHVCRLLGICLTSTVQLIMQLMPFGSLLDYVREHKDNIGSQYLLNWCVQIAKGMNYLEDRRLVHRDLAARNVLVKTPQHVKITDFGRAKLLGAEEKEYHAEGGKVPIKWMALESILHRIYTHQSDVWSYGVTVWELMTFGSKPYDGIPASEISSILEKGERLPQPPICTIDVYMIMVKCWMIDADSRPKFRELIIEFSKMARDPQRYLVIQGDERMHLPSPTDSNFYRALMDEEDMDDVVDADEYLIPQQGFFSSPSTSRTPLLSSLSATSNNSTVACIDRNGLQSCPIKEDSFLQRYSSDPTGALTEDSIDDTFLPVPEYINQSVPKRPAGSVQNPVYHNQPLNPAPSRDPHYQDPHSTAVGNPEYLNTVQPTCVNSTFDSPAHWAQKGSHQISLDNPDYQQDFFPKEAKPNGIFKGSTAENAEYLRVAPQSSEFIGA
How it was run: as §1

[3] = target: EGFR Del19/C797S (Homo sapiens, UniProt P00533, C797S/DEL746-750); experiment: Biochemical EGFR kinase inhibition assay (Lance Ultra TR-FRET), double mutant del19/C797S
How it was run: as §1

[4] = target: EGFR L858R/C797S (Homo sapiens, UniProt P00533, C797S/L858R); experiment: Biochemical EGFR kinase inhibition assay (Lance Ultra TR-FRET), double mutant L858R/C797S
Chain of EGFR L858R/C797S (P00533 25-1210 C797S/L858R): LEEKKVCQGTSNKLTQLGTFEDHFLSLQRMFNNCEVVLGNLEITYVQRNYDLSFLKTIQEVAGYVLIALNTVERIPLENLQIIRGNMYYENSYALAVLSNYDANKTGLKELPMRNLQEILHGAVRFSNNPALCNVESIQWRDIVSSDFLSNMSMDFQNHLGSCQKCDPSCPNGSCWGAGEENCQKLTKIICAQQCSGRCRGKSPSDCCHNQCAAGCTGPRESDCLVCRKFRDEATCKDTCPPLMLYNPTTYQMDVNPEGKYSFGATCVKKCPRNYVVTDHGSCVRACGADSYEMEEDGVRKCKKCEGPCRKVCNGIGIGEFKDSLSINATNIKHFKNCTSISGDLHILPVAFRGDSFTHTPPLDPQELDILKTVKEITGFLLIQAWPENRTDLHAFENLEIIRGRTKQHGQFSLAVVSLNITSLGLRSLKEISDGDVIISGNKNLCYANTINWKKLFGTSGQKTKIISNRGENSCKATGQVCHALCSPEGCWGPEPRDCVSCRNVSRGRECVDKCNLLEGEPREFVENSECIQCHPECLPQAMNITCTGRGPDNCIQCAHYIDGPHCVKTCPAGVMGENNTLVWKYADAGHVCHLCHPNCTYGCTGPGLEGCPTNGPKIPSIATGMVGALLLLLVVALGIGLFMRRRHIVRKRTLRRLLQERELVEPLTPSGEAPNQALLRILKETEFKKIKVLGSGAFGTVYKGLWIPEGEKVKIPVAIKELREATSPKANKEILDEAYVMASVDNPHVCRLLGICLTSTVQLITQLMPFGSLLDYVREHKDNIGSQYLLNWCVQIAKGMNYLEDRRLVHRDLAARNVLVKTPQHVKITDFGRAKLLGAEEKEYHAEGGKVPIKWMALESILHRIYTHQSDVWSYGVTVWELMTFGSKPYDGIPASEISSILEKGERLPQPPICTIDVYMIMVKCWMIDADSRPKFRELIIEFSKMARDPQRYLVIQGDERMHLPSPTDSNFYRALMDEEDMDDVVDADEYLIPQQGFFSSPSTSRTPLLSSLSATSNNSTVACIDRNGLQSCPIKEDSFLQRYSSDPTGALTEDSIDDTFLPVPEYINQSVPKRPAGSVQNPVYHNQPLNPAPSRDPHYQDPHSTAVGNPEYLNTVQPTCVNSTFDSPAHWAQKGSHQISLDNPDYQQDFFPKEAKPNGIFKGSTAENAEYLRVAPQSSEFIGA
How it was run: as §1

[5] = target: EGFR wildtype (WT) (Homo sapiens, UniProt P00533); experiment: Biochemical EGFR kinase inhibition assay (Lance Ultra TR-FRET), wildtype
Chain of EGFR wildtype (WT) (P00533 25-1210): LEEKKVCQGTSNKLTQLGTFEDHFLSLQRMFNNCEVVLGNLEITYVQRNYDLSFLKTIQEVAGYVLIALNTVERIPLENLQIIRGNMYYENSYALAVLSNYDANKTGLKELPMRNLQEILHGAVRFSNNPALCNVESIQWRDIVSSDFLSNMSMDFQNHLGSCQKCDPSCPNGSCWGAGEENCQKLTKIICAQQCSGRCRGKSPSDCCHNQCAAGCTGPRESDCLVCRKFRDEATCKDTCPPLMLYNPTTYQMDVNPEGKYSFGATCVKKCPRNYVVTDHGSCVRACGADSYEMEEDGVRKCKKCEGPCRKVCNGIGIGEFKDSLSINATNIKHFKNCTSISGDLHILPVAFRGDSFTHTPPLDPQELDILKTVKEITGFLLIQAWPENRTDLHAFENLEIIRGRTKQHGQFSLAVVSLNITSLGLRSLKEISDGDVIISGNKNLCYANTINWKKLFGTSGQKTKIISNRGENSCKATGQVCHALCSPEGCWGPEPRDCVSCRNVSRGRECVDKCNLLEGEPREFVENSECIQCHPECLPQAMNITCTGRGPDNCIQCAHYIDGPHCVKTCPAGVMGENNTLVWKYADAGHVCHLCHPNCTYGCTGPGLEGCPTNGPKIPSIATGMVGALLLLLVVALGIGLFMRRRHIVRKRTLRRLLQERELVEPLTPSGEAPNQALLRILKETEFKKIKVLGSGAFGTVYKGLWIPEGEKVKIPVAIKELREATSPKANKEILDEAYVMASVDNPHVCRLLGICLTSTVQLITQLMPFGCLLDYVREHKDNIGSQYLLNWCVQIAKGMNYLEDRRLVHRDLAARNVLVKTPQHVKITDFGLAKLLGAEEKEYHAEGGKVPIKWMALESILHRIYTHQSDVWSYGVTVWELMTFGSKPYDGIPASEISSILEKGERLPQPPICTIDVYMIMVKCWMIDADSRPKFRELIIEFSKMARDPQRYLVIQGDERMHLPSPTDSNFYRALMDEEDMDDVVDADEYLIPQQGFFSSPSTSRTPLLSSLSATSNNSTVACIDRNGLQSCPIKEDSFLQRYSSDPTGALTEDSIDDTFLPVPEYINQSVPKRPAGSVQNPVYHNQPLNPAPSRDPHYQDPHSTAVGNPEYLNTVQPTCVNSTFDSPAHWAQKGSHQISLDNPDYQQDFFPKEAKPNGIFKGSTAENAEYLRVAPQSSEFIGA
How it was run: as §1

[6] = IC50 Del19/T790M/C797S (nM), 100 μM ATP
[7] = Km ATP, read-out: IC50 Del19/T790M/C797S (nM), Km ATP
[8] = IC50 L858R/T790M/C797S (nM), 100 μM ATP
[9] = Km ATP, read-out: IC50 L858R/T790M/C797S (nM), Km ATP
[10] = IC50 Del19/C797S (nM), 100 μM ATP
[11] = Km ATP, read-out: IC50 Del19/C797S (nM), Km ATP
[12] = IC50 L858R/C797S (nM), 100 μM ATP
[13] = Km ATP, read-out: IC50 L858R/C797S (nM), Km ATP
[14] = Km ATP, read-out: IC50 WT (nM), Km ATP

Chain of EGFR Del19/T790M/C797S (P00533 with tags, fused parts or gaps DEL746-750/T790M/C797S): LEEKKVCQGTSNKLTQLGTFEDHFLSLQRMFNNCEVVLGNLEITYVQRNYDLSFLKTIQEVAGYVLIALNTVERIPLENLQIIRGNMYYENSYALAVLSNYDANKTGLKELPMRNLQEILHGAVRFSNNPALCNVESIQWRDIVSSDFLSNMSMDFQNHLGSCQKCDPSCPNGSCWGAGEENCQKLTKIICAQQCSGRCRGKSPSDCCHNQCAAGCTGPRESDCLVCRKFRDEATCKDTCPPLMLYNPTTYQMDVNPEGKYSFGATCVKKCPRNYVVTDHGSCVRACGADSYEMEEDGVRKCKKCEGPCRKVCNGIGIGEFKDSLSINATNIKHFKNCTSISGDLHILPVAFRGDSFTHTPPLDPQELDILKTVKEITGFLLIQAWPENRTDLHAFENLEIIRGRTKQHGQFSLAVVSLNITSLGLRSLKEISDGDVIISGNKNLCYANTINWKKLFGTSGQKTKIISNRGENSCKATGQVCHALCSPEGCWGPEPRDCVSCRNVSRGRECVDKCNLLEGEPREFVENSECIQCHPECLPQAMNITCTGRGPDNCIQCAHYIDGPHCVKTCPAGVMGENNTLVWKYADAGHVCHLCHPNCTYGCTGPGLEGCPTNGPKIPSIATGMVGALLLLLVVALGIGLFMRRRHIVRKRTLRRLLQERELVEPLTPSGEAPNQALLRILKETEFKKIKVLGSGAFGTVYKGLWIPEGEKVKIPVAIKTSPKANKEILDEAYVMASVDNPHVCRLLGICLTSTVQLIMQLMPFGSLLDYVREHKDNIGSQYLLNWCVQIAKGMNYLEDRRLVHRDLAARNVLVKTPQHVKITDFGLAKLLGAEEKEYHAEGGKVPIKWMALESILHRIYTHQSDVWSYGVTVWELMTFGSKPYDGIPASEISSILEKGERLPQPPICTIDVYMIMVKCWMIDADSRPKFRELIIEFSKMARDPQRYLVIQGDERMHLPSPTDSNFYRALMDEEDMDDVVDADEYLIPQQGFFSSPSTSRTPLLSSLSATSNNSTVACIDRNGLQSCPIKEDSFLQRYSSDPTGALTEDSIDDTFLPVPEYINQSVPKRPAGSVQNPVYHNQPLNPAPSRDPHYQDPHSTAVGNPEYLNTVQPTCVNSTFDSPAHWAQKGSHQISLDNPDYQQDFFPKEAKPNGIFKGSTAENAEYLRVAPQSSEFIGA

SMILES | IC50 [1, 6] [nM] | IC50 [1, 7] [nM] | IC50 [2, 8] [nM] | IC50 [2, 9] [nM] | IC50 [3, 10] [nM] | IC50 [3, 11] [nM] | IC50 [4, 12] [nM] | IC50 [4, 13] [nM] | IC50 ([5]; IC50 WT (nM), 100 μM ATP) [nM] | IC50 [5, 14] [nM]
O=S(=O)(C1CC1)n1cc(-c2nccc(Nc3cc(N4C[C@@H]5[C@@H](CO)[C@@H]5C4)c(C#Cc4cnn(C(F)(F)F)c4)cn3)n2)cn1 [Example 331, ((1R,5S,6r)-3-(2-((2-(1-(Cyclopropylsulfonyl)-1H-pyrazol-4-yl)pyrimidin-4-yl)amino)-5-((1-(trifluoromethyl)-1H-pyrazol-4-yl)ethynyl)pyridin-4-yl)-3-azabicyclo[3.1.0]hexan-6-yl)methanol] | 10.3 | 6.1 | 13.9 | 5 | 245 | 87.5 | 9130 | 173 | > 10000 | 309
O=S(=O)(C1CC1)n1cc(-c2nccc(Nc3cc(N4[C@@H]5CC[C@H]4C[C@H](CO)C5)c(C#Cc4cnn(C(F)(F)F)c4)cn3)n2)cn1 [Example 332, ((1R,3s,5S)-8-(2-((2-(1-(Cyclopropylsulfonyl)-1H-pyrazol-4-yl)pyrimidin-4-yl)amino)-5-((1-(trifluoromethyl)-1H-pyrazol-4-yl)ethynyl)pyridin-4-yl)-8-azabicyclo[3.2.1]octan-3-yl)methanol] | 23.9 | 18.9 | 21.6 | 7.8 | 1730 | 800 | > 10000 | 845 | > 10000 | 801
O=S(=O)(C1CC1)n1cc(-c2nccc(Nc3cc(N4C[C@H]5C[C@@]5(CO)C4)c(C#Cc4cnn(C(F)(F)F)c4)cn3)n2)cn1 [Example 333, ((1 S,5S)-3-(2-((2-(1-(Cyclopropylsulfonyl)-1H-pyrazol-4-yl)pyrimidin-4-yl)amino)-5-((1-(trifluoromethyl)-1H-pyrazol-4-yl)ethynyl)pyridin-4-yl)-3-azabicyclo[3.1.0]hexan-1-yl)methanol] | 17.8 | 6.8 | 13 | 3.5 | 255 | 133 | > 10000 | 245 | > 10000 | 240
O=S(=O)(C1CC1)n1cc(-c2nccc(Nc3cc(N[C@H]4CC[C@@H](CO)CC4)c(C#Cc4cnn(C(F)(F)F)c4)cn3)n2)cn1 [Example 336, ((1s,4s)-4-((2-((2-(1-(Cyclopropylsulfonyl)-1H-pyrazol-4-yl)pyrimidin-4-yl)amino)-5-((1-(trifluoromethyl)-1H-pyrazol-4-yl)ethynyl)pyridin-4-yl)amino)cyclohexyl)methanol] | 3.9 | 2 | 2.4 | 1.3 | 38.2 | 26.1 | 1750 | 50.1 | > 10000 | 295

Now from value to compound:

IC50 [1, 6] [nM] | IC50 [1, 7] [nM] | IC50 [2, 8] [nM] | IC50 [2, 9] [nM] | IC50 [3, 10] [nM] | IC50 [3, 11] [nM] | IC50 [4, 12] [nM] | IC50 [4, 13] [nM] | IC50 ([5]; IC50 WT (nM), 100 μM ATP) [nM] | IC50 [5, 14] [nM] | SMILES
8 | 5.6 | 14.8 | 3.3 | 1840 | 239 | 7530 | 136 | > 10000 | 276 | CC(=O)C1CCN(c2cc(Nc3ccnc(-c4cnn(S(=O)(=O)C5CC5)c4)n3)ncc2C#Cc2cnn(C(F)(F)F)c2)CC1 [Example 334, 1-(1-(2-((2-(1-(Cyclopropylsulfonyl)-1H-pyrazol-4-yl)pyrimidin-4-yl)amino)-5-((1-(trifluoromethyl)-1H-pyrazol-4-yl)ethynyl)pyridin-4-yl)piperidin-4-yl)ethan-1-one]
0.4 | 0.4 | 0.4 | 0.2 | 2.3 | 2.1 | 53.4 | 4.3 | 4970 | 9.2 | CN(C)CCC1CCN(c2cc(Nc3ccnc(-c4cnn(S(=O)(=O)C5CC5)c4)n3)ncc2C#Cc2cnn(C(F)(F)F)c2)CC1 [Example 335, 2-(1-(Cyclopropylsulfonyl)-1H-pyrazol-4-yl)-N-(4-(4-(2-(dimethylamino)ethyl)piperidin-1-yl)-5-((1-(trifluoromethyl)-1H-pyrazol-4-yl)ethynyl)pyridin-2-yl)pyrimidin-4-amine]

Reference: US11981658B2, “Substituted aminopyridine compounds as EGFR inhibitors” (YUHAN CORPORATION, priority 2021, dated 2024)
